Experimental data reported in patent US12070462B2, “SETBP1 inhibitors for the treatment of myeloid neoplasms and solid tumors” (The Henry M. Jackson Foundation for the Advancement of …, priority 2018, dated 2024).

Assays:
[1] = tested on: Setbp1(D/N)-induced leukemia; experiment: Mice transplanted with Setbp1(D/N)-induced AML, treatment with Compound (1AA); type: in vivo, mouse; settings: 33 mg/kg, five intra-peritoneal injections from day 10 after transplantation, vs vehicle
Procedure: (§1) In Vitro and In Vivo Testing of Compound (1AA). The activity of Compound 1AA against myeloid neoplasms was first determined in vitro by assessing its inhibitory effect on the colony formation by Setbp1/Setbp1(D/N)-immortalized mouse myeloid progenitors on IMDM methylcellulose medium with 20% horse serum plus mouse Scf (50 ng/ml) and Il-3 (10 ng/ml). The in vivo activity of Compound 1AA was evaluated by assessing its capability to reduce spleen size and to extend the survival of mice transplanted with Setbp1(D/N)-induced leukemia cells. For the generation of leukemic mice, 5×10^5 spleen cells from a primary recipient mouse with Setbp1(D/N)-induced leukemia were injected into the tail vein of each sublethally irradiated (550 rads from a ^137Cs source) B6-Ly5.2 female mouse. Starting from day 10 after transplantation, the recipient mice were treated with Compound (1AA) (33 mg/kg, dissolved in saline) or saline through five intra-peritoneal injections. The activity of Compound 1AA against solid tumors is determined by assessing its growth inhibitory effects on different human solid tumor cell lines in culture. Specifically, cellular ATP levels of liquid cultures of these cell lines are measured at 72 hours after treatment with serially diluted concentrations of Compound 1AA and compared to untreated cells.

[2] = tested on: Hoxa9, Hoxa10 and Myb mRNA levels; experiment: Real-time RT-PCR of Setbp1 target genes in Setbp1-immortalized cells; type: cell-based, mouse; settings: for Setbp1 target transcription levels of Hoxa9, Hoxa10 and Myb: 12 hours post-treatment, 1 nM
Procedure: (§2) Cell Culture Studies of Immortalized Myeloid Progenitors. Mouse myeloid progenitors immortalized by 3×FLAG-tagged Setbp1 and Setbp1(D/N) were generated and maintained as previously described using pMYs-3×FLAG-Setbp1-IRES-GFP and pMYs-3×FLAG-Setbp1(D/N)-IRES-GFP viruses respectively (Oakley et al., Blood 119(25): 6099-6108 (2012). Lentiviral transduction of these immortalized cells was carried out by spinoculation in which a mixture of lentivirus and target cells was spun at 2000×g for 90 minutes at 37° C. Transduced cells were selected by treatment with puromycin (2 μg/ml) for 24 hours at 24 hours after lentiviral transduction. Colony formation assays for transduced cells were performed at 48 hours after infection using 1×10^4 puromycin-resistant cells on IMDM methylcellulose medium supplemented with 20% horse serum, mouse Scf (100 ng/ml) and II-3 (10 ng/ml), and puromycin (2 μg/ml) with colony numbers counted after 7 days. For studying effects of KPT-185 (Selleck Chemicals, Houston, TX) in liquid culture, immortalized cells were treated at 2.5×10^5 cells/ml concentration. Detection of apoptosis was performed using PE Annexin V Apoptosis Detection Kit (BD Biosciences). KPT-185 was directly added to methylcellulose medium for assessing its effects on colony formation by immortalized cells.
(§3) Real-Time RT-PCR. For real-time RT-PCR, total RNA was extracted from cells using Nucleospin RNA (Clontech, Duren, Germany). Oligo-dT-primed cDNA samples were prepared using Superscript III (Invitrogen), and real-time PCR analysis was performed in triplicates using SYBR green detection reagents (Invitrogen) on a QuantStudio real time PCR system (Applied Biosystems, Foster City, CA). Relative changes in expression were calculated according to the ΔΔCt method. The cycling conditions were 50° C. for 2 minutes followed by 95° C. for 2 minutes, and then 40 cycles of 95° C. for 15 seconds and 60° C. for 1 minute. […]

[3] = tested on: Hoxa9, Hoxa10 and Myb mRNA levels; experiment: Real-time RT-PCR of Setbp1(D/N) target genes in Setbp1(D/N)-immortalized cells; type: cell-based, mouse; settings: for Setbp1 (D/N) target transcription levels of Hoxa9, Hoxa10 and Myb: Setbp1 (D/N)-immortalized cells, 12 hours post-treatment, 1 nM
Procedure: as §2, §3

[4] = tested on: Setbp1(D/N)-immortalized myeloid progenitors; experiment: Apoptosis (Annexin V) and differentiation/cytotoxicity (cytospin) in Setbp1(D/N)-immortalized cells; type: cell-based, mouse; settings: for differentiation/cytotoxicity: Setbp1 (D/N)-immortalized cells, 100 nM
Procedure: as §2

[5] = tested on: Setbp1-immortalized myeloid progenitor cells; experiment: Apoptosis (Annexin V) and differentiation/cytotoxicity (cytospin) in Setbp1-immortalized cells; type: cell-based, mouse; settings: for differentiation/cytotoxicity: 100 nM
Procedure: as §2

[6] = tested on: Setbp1-immortalized mouse myeloid progenitors; experiment: Colony formation on methylcellulose by Setbp1-immortalized myeloid progenitors; type: cell-based; settings: for colony formation: Setbp1-immortalized cells, 1 nM, 5 nM, 10 nM, and 100 nM
Procedure: as §1
(§4) Cell Culture Studies of Immortalized Myeloid Progenitors. […]

[7] = tested on: Setbp1(D/N)-immortalized mouse myeloid progenitors; experiment: Colony formation on methylcellulose by Setbp1(D/N)-immortalized myeloid progenitors; type: cell-based; settings: for colony formation: Setbp1 (D/N)-immortalized cells, 1 nM
Procedure: as §1, §4

[8] = target: T1, interaction between Setbp1(D/N) and XPO1 (Mus musculus, UniProt Q9Z180, D859N); experiment: Co-immunoprecipitation / Western blotting of nuclear extracts of transfected HEK293T cells; type: cell-based; settings: 1 μM, 10 μM and 25 μM, 12 hours, M2 immunoprecipitates
T1 construct: expressed in transfected cells; host or cells: HEK293T
T1 sequence (Q9Z180 whole entry D859N): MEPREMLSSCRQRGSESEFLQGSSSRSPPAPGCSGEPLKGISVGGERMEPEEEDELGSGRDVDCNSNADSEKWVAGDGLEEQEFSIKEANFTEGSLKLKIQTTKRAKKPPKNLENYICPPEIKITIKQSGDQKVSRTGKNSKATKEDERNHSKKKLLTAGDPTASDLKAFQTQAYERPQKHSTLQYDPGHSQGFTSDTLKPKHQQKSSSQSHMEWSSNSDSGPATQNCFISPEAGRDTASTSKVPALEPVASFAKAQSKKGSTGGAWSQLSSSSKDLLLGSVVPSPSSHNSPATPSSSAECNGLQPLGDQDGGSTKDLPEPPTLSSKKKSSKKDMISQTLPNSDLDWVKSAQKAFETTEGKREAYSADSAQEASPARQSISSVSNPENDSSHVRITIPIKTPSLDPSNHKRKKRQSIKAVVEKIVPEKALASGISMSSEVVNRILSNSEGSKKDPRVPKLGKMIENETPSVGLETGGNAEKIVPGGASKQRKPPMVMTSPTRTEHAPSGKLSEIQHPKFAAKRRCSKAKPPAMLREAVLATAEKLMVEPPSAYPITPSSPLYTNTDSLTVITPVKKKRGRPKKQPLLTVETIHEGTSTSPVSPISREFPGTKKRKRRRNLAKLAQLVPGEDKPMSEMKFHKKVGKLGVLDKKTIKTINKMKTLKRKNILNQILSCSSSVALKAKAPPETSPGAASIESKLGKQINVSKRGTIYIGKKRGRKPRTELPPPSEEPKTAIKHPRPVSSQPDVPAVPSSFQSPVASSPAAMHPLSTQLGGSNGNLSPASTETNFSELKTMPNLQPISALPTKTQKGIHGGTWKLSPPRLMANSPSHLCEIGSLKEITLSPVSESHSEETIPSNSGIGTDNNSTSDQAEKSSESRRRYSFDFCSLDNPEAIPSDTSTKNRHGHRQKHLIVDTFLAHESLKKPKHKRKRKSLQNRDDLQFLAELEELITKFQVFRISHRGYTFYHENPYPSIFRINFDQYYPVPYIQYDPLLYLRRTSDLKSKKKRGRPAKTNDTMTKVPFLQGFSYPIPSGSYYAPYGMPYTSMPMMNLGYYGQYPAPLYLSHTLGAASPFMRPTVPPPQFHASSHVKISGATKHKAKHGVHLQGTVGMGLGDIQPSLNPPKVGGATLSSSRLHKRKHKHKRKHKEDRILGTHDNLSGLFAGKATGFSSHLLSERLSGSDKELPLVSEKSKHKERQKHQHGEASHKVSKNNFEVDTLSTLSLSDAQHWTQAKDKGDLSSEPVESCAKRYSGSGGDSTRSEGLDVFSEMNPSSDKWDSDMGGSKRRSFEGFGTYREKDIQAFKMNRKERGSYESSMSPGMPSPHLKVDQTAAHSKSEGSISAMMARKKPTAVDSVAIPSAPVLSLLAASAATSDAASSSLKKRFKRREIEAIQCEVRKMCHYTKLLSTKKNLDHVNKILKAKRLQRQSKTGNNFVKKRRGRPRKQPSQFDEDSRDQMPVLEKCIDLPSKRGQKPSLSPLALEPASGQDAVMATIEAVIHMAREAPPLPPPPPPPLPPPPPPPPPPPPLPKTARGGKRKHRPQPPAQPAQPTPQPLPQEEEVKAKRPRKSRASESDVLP
Procedure: Western blotting analyses using indicated specific antibodies were performed on M2 immunoprecipitates prepared from nuclear extracts of HEK293T cells transiently transfected with pMYs-3×FLAG-Setbp1-IRES-GFP and subsequently treated with different concentrations of Compound (1AA) and control DMSO for 12 hours.
Immunoprecipitation. HEK293T cells were transfected with the indicated expression constructs using LipoD293 (SignaGen Laboratories, Rockville, MD) and nuclear extracts were isolated 48 hours after transfection using the Nuclear Complex Co-IP kit (Active Motif, Carlsbad, CA). Nuclear lysates were incubated with either 4 μg of anti-Flag M2 (Sigma Aldrich, St. Louis, MO) or anti-XPO1 (NB100-79802, Novus Biological, Centennial, CO) for 4 hours at 4° C. Subsequently, Dynabeads protein A (Invitrogen, Carlsbad, CA) were added to the nuclear lysate/antibody mixture and incubated for an additional 2 hours at 4° C. Immunoprecipitated proteins were eluted and analyzed by Western blotting analysis. For immunoprecipitation experiments using in vitro transcribed and translated proteins, the corresponding cDNAs were cloned into pCMV-TNT and the TnT T7 Coupled Wheat Germ Extract (Promega, Madison, WI) system was used according to the manufacturer's instructions.
Western Blotting Analysis. […]

[9] = tested on: Setbp1(D/N)-induced leukemia; experiment: Mice transplanted with Setbp1(D/N)-induced AML, treatment with KPT-330; type: in vivo, mouse
Procedure: Bone Marrow Transplantation and In Vivo Treatment with KPT-330. For generation of leukemic mice, 1×10^6 spleen cells from a primary recipient mouse with Setbp1(D/N)-induced leukemia were injected into the tail vein of each lethally irradiated (1100 rads from a ^137Cs source) B6-Ly5.2 female mouse along with 7.5×10^5 supporting bone marrow cells from un-irradiated B6-Ly5.2 mice. Starting from day 7 after transplantation, the recipient mice were treated with KPT-330 (20 mg/kg, dissolved in 2% DMSO/49% PEG300/ddH2O) or vehicle through oral gavage once every two days. KPT-330 was purchased from Selleck Chemicals.

Structure (SMILES): Cc1c2cc[n+](CCN3CCCCC3)cc2c(C)c2c1[nH]c1ccc(O)cc12.[Br-] [Compound (1AA)]
- spleen size (spleen weights when moribund) [1]: reduced the spleen size
- survival of leukemic mice ([1]; p=0.0034, Log-rank test): significantly extended the survival
- Setbp1 target transcription levels of Hoxa9, Hoxa10 and Myb ([2]; 10 nM, 100 nM and 500 nM): reduces Setbp1 target transcription levels
- Setbp1 (D/N) target transcription levels of Hoxa9, Hoxa10 and Myb ([3]; 10 nM, 100 nM and 500 nM): reduces Setbp1 (D/N) target transcription levels
- differentiation/cytotoxicity [4]: induces differentiation/cytotoxicity
- differentiation/cytotoxicity [5]: induces differentiation/cytotoxicity
- colony formation [6]: inhibits colony formation
- colony formation ([7]; 5 nM, 10 nM, and 100 nM): inhibits colony formation
- interaction between Setbp1(D/N) and XPO1 [8]: disrupts the interaction

Structure (SMILES): Nc1ccc(Cn2ccc3c4c(N)nc(N)nc4ccc32)cc1 [Compound (2AA)]
- Setbp1 target transcription levels of Hoxa9, Hoxa10 and Myb ([2]; 50 nM, 100 nM and 300 nM): reduces Setbp1 target transcription levels
- Setbp1 (D/N) target transcription levels of Hoxa9, Hoxa10 and Myb ([3]; 50 nM, 100 nM and 300 nM): reduces Setbp1 (D/N) target transcription levels
- differentiation/cytotoxicity [4]: induces differentiation/cytotoxicity
- differentiation/cytotoxicity [5]: induces differentiation/cytotoxicity
- colony formation [6]: inhibits colony formation
- colony formation ([7]; 10 nM, 50 nM, 100 nM, 300 nM and 500 nM): inhibits colony formation

Structure (SMILES): COc1cc(-c2ncn(/C=C\C(=O)OC(C)C)n2)cc(C(F)(F)F)c1 [KPT-185, reference compound]
- Hoxa9/Hoxa10/Myb mRNA levels ([2]; 300 nM, 2.5 hours after treatment, vs DMSO): significantly down-regulated
- Hoxa9/Hoxa10/Myb mRNA levels ([3]; Setbp1(D/N)-immortalized cells, 300 nM, 2.5 hours after treatment, vs DMSO): significantly down-regulated
- apoptosis (Annexin V staining) ([4]; Setbp1(D/N)-immortalized cells, 48 hours after treatment, vs DMSO): induces apoptosis
- differentiation (cytospin) ([4]; Setbp1(D/N)-immortalized cells, 72 hours after treatment): induces apoptosis and differentiation
- apoptosis (Annexin V staining) ([5]; 48 hours after treatment, vs DMSO): induces apoptosis
- differentiation: number of mature neutrophils (cytospin) ([5]; 72 hours after treatment): significantly increase
- relative colony-forming potential ([6]; Setbp1-immortalized myeloid progenitors, indicated concentrations, vs DMSO): significantly reduces colony-forming potential
- relative colony-forming potential ([7]; Setbp1(D/N)-immortalized myeloid progenitors, indicated concentrations, vs DMSO): significantly reduces colony-forming potential

Structure (SMILES): O=C(/C=C\n1cnc(-c2cc(C(F)(F)F)cc(C(F)(F)F)c2)n1)NNc1cnccn1 [KPT-330]
- extension of survival time ([9]; 20 mg/kg oral gavage every 2 days from day 7, vehicle mice moribund in 17 days): ≤ 50%
- survival of transplanted mice ([9]; 20 mg/kg oral gavage every 2 days from day 7 after transplantation, vs vehicle, p=0.012, Log-rank test): prolonged the survival
